Test results published in patent US11957684B2, “Treatment of heavy menstrual bleeding associated with uterine fibroids” (Sumitomo Pharma Switzerland GmbH, priority 2016, dated 2024).

Tested on: women with endometriosis
Assay: Example 8A: safety (adverse events, BMD, menstruation recovery)
Details: for Change from Baseline in BMD, mean: Week 24
Text: Study participants were premenopausal (≥20 years) Japanese women with endometriosis (EM)-associated pain who completed a preceding 12-week study and were eligible to continue for an additional 12-week treatment were enrolled. The participants has confirmed normal regular menstrual cycles (25 to 38 days per cycle) and diagnosed to have EM and EM-related dysmenorrhea and pelvic pain of at least moderate severity as determined by the physician B&B scale. The primary endpoint was the safety including assessment of change in bone mineral density (BMD) using dual energy x-ray absorptiometry, adverse events, vital signs, weight, 12-lead electrocardiograms, and clinical laboratory tests.
The present extension study consisted of an additional treatment period of 12 weeks and a follow-up period of 4 weeks. Overall treatment duration was 24 weeks from the beginning of the preceding phase 2 study. Patients were assigned to the same treatment group as the preceding phase 2 study.

SMILES: CONC(=O)Nc1ccc(-c2sc3c(c2CN(C)C)c(=O)n(-c2ccc(OC)nn2)c(=O)n3Cc2c(F)cccc2F)cc1 [Compound 1, N-(4-(1-(2,6-difluorobenzyl)-5-((dimethylamino)methyl)-3-(6-methoxy-3-pyridazinyl)-2,4-dioxo-1,2,3,4-tetrahydrothieno[2,3-d]pyrimidin-6-yl)phenyl)-N′-methoxyurea]
- Menstruation Recovery Period, mean (10 mg): 21 days
- Any TEAEs (10 mg (N = 103)): 89 N
- Headache (10 mg (N = 103)): 5 N
- Hot flush (10 mg (N = 103)): 12 N
- Hyperhidrosis (10 mg (N = 103)): 4 N
- Menorrhagia (10 mg (N = 103)): 11 N
- Menstruation Irregular (10 mg (N = 103)): 21 N
- Metrorrhagia (10 mg (N = 103)): 28 N
- Nasopharyngitis (10 mg (N = 103)): 31 N
- Oligomenorrhea (10 mg (N = 103)): 12 N
- Serious TEAEs (10 mg (N = 103)): 0 N
- TEAEs Leading to Study Drug Discontinuation (10 mg (N = 103)): 1 N
- TEAEs Related to Study Drug (10 mg (N = 103)): 68 N
- TEAEs, Mild (10 mg (N = 103)): 83 N
- TEAEs, Moderate (10 mg (N = 103)): 6 N
- TEAEs, Severe (10 mg (N = 103)): 0 N
- Change from Baseline in BMD, mean (10 mg): −1.6%
- Menstruation Recovery Period, mean (20 mg): 26 days
- Any TEAEs (20 mg (N = 100)): 96 N
- Headache (20 mg (N = 100)): 12 N
- Hot flush (20 mg (N = 100)): 23 N
- Hyperhidrosis (20 mg (N = 100)): 11 N
- Menorrhagia (20 mg (N = 100)): 16 N
- Menstruation Irregular (20 mg (N = 100)): 21 N
- Metrorrhagia (20 mg (N = 100)): 36 N
- Nasopharyngitis (20 mg (N = 100)): 31 N
- Oligomenorrhea (20 mg (N = 100)): 12 N
- Serious TEAEs (20 mg (N = 100)): 2 N
- TEAEs Leading to Study Drug Discontinuation (20 mg (N = 100)): 7 N
- TEAEs Related to Study Drug (20 mg (N = 100)): 88 N
- TEAEs, Mild (20 mg (N = 100)): 82 N
- TEAEs, Moderate (20 mg (N = 100)): 14 N
- TEAEs, Severe (20 mg (N = 100)): 0 N
- Change from Baseline in BMD, mean (20 mg): −2.6%
- Menstruation Recovery Period, mean (40 mg): 37 days
- Any TEAEs (40 mg (N = 103)): 98 N
- Headache (40 mg (N = 103)): 11 N
- Hot flush (40 mg (N = 103)): 55 N
- Hyperhidrosis (40 mg (N = 103)): 10 N
- Menorrhagia (40 mg (N = 103)): 15 N
- Menstruation Irregular (40 mg (N = 103)): 7 N
- Metrorrhagia (40 mg (N = 103)): 30 N
- Nasopharyngitis (40 mg (N = 103)): 31 N
- Oligomenorrhea (40 mg (N = 103)): 1 N
- Serious TEAEs (40 mg (N = 103)): 0 N
- TEAEs Leading to Study Drug Discontinuation (40 mg (N = 103)): 2 N
- TEAEs Related to Study Drug (40 mg (N = 103)): 91 N
- TEAEs, Mild (40 mg (N = 103)): 83 N
- TEAEs, Moderate (40 mg (N = 103)): 15 N
- TEAEs, Severe (40 mg (N = 103)): 0 N
- Change from Baseline in BMD, mean (40 mg): −4.9%
